According to patent US7709475B2, “Selective inhibitors against Cdk4 and Cdk6 having aminothiazole skeleton” (Banyu Pharmaceutical Co., Ltd., priority 2004, dated 2010):

Legend:
cyclin D2-Cdk4 = molecular target: T1, cyclin D2-Cdk4 (Homo sapiens, UniProt P11802); assay: Cdk4 inhibitory action: cyclin D2-Cdk4 kinase activity, 33P-ATP, RB peptide substrate; format: biochemical; conditions: cyclin D2-Cdk4, 50 μM ATP
T1 construct: made in house; host or cells: insect cell Sf9 (baculovirus)
Description: First, the cDNA of Cdk4, and the cDNA of a fusion protein of cyclin D2, an activating factor of Cdk4, and glutathione S-transferase, were integrated into a baculovirus expression vector to prepare a recombinant baculovirus. This was co-transfected into insect cell Sf9 to express an active complex of the cyclin D2/glutathione S-transferase fusion protein-Cdk4 at a high level. The cells were recovered and solubilized, then the active complex was adsorbed onto Glutathione Sepharose, and a cyclin D2-Cdk4 complex was recovered using Precision Protease and was purified by HPLC column chromatography [EMBO J., Vol. 15, 7060-7069 (1996)].
For the measurement of the activity of cyclin D2-Cdk4, a synthetic peptide (Arg-Pro-Pro-Thr-Leu-Ser-Pro-Ile-Pro-His-Ile-Pro-Arg) corresponding to amino acid residue No. 775-787 of RB protein was used as the substrate [EMBO J., Vol. 15, 7060-7069 (1996)].
The reaction was performed by partially modifying the method of Kitagawa et al. [Oncogene, Vol. 7, 1067-1074 (1992)]. The volume of the reaction solution was 21.1 μL, and the composition of the reaction buffer (R buffer) was 20 mM Tris-hydrochloric acid buffer (pH 7.4)/10 mM magnesium chloride/4.5 mM 2-mercaptoethanol/1 mM ethylene glycol bis(β-aminoethyl ether)-N,N,N′,N′-tetraacetic acid (EGTA). To this reaction buffer, purified cyclin D2-Cdk4, 100 μM of the substrate peptide, 50 μM of non-labeled adenosine triphosphate (ATP), and 1 μCi of [γ-33P]-labeled ATP (2000 to 4000 Ci/mmole) were added to react at 30° C. for 45 minutes. Then, 10 μL of 350 mM phosphate buffer was added to the reaction system to terminate the reaction. The substrate peptide was adsorbed onto P81 paper filter on a 96-well plate, and then washed several times with 75 mM phosphate buffer. The radioactivity of the substrate peptide was measured with a liquid scintillation counter. The [γ-33P]-labeled ATP was purchased from Daiichi Pure Chemicals Co., Ltd.
Addition of the test compound to the reaction system was carried out by first preparing a dilution series of solutions of the compound in dimethylsulfoxide (DMSO), and adding 1.1 μL of the dilutions. A control was provided by adding 1.1 μL of DMSO to the reaction system.
A representative compound of the compounds according to the invention was selected, and the IC50 value of this compound for the cyclin D2-Cdk4 activity was determined.

cyclin H-Cdk7 = molecular target: T2, cyclin H-Cdk7 (Homo sapiens, UniProt P50613); assay: Cdk7 inhibitory action: cyclin H-Cdk7 kinase activity; format: biochemical; conditions: cyclin H-Cdk7, 50 μM ATP
T2 construct: made in house; host or cells: insect cell Sf9 (baculovirus)
Description: The cDNA of Cdk7, and the cDNA of a fusion protein of cyclin H, an activating factor of Cdk7, and glutathione S-transferase, were integrated into a baculovirus expression vector to prepare a recombinant baculovirus. This was co-transfected into insect cell Sf9 to express an active complex of the cyclin H/glutathione S-transferase fusion protein-Cdk7 at a high level. The cells were recovered and solubilized, then the active complex was adsorbed onto Glutathione Sepharose, and a cyclin H-Cdk7 active complex was recovered using Precision Protease.
For the measurement of the activity of cyclin H-Cdk7, a synthetic peptide ([…] was used as the substrate.
(§1) The reaction was performed by partially modifying the method of Kitagawa et al. [Oncogene, Vol. 7, 1067-1074 (1992)]. The volume of the reaction solution was 21.1 μL, and to the R buffer, purified cyclin H-Cdk7, 25 μM of the substrate peptide, 50 μM of non-labeled adenosine triphosphate (ATP), and 1 μCi of [γ-33P]-labeled ATP (2000 to 4000 Ci/mmole) were added to react at 30° C. for 45 minutes. Then, 10 μL of 350 mM phosphate buffer was added to the reaction system to terminate the reaction. The substrate peptide was adsorbed onto P81 paper filter on a 96-well plate, and then washed several times with 75 mM phosphate buffer. The radioactivity of the substrate peptide was measured with a liquid scintillation counter.
Addition of the compound according to the invention to the reaction system was carried out by first preparing a dilution series of solutions of the compound in dimethylsulfoxide (DMSO), and adding 1.1 μL of the dilutions. A control was provided by adding 1.1 μL of DMSO to the reaction system.
A representative compound of the compounds according to the invention was selected, and the IC50 value of this compound for the cyclin H-Cdk7 activity was determined.

cyclin T1-Cdk9 = molecular target: T3, cyclin T1-Cdk9 (Homo sapiens, UniProt P50750); assay: Cdk9 inhibitory action: cyclin T1-Cdk9 kinase activity; format: biochemical; conditions: cyclin T1-Cdk9, 50 μM ATP
T3 construct: made in house; host or cells: insect cell Sf9 (baculovirus)
Description: The cDNA of Cdk9, and the cDNA of a fusion protein of cyclin T1, an activating factor of Cdk9, and glutathione S-transferase, were integrated into a baculovirus expression vector to prepare a recombinant baculovirus. This was co-transfected into insect cell Sf9 to express an active complex of the cyclin T1/glutathione S-transferase fusion protein-Cdk9 at a high level. The cells were recovered and solubilized, and the active complex was adsorbed onto Glutathione Sepharose, and then was purified by elution with 10 mM reductive glutathione. The solution containing the eluted active complex was dialyzed against B buffer (composition: 20 mM Tris-hydrochloric acid buffer (pH 7.4)/200 mM sodium chloride/0.1% Tween-20/10 mM 2-mercaptoethanol/1 mM dithiothreitol/10% glycerol) to remove the reductive glutathione.
For the measurement of the activity of cyclin T1-Cdk9, a synthetic peptide ([…] was used as the substrate.
as §1, with “cyclin T1-Cdk9,” for “cyclin H-Cdk7,”, “and 0.5” for “and 1”, “for 20” for “for 45”
Addition of the compound according to the invention to the reaction system was carried out by first preparing a dilution series of solutions of the compound in dimethylsulfoxide (DMSO), and adding […] of the dilutions. A control was provided by adding 1.1 μL of DMSO to the reaction system.
A representative compound of the compounds according to the invention was selected, and the IC50 value (nM) of this compound for the cyclin T1-Cdk9 activity was determined.

JURKAT = assay: Inhibitory action against cell proliferation (WST-8), JURKAT; format: cell-based; conditions: Homo sapiens, 72 h, Jurkat cells, 3 days culture, read-out: concentration for 50% inhibition of cell proliferation (IC50), Jurkat
Protocol: Clinically isolated cancer cell lines EOL-1, KU812 and JURKAT were cultured in RPMI1640 medium containing 10% fetal calf serum at 37° C. in the presence of 5% CO2 under an atmosphere of saturated steam.
The inhibitory action against cell proliferation was measured by modifying the method of Skehan et al. [J. Natl. Cancer Inst., Vo. 82, 1107-1112 (1990)] according to the method of Ishiyama et al. [Talanta, Vol. 44, 1299 (1997)]. 100 μL each of cell culture medium containing 1×10^3 live cells of EOL-1, KU812 and JURKAT, respectively, was dispensed into each well of a 96-well cell culture dish, and the cells were cultured overnight. On the next day, a dilution series of solutions in DMSO was prepared from a DMSO solution of the compound of each Example. Then, the dilution series of solutions or DMSO only as a control for no drug addition were separately added to the medium for cell culture. Finally, 100 μL each of the culture medium containing either the dilution series of solutions of the compounds or DMSO only, was added to the cells which had been cultured in a 96-well dish, and then the cells were further cultured for 3 days.
After adding 20 μL each of WST-8 (Kishida Chemical Co., Ltd.) to each well and culturing the cells for another 2 hours, the optical densities at 450 nm were measured against a reference wavelength of 650 nm, and were compared with the control group. The results obtained by determining the concentrations for 50% inhibition of cell proliferation (IC50 (nM)) of the compounds of Examples are presented in the following Table 4.

T3 sequence (P50750 whole entry): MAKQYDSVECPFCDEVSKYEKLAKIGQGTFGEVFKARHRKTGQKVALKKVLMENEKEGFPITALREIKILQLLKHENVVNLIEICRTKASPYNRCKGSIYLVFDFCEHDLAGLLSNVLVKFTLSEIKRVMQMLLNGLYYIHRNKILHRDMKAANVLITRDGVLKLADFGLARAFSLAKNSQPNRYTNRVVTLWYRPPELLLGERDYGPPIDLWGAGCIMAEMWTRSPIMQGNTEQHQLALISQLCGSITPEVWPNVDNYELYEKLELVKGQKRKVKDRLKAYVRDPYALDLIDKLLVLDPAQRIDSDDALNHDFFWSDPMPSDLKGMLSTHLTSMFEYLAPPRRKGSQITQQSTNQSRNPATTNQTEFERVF
T3 sequence (O60563 whole entry partner): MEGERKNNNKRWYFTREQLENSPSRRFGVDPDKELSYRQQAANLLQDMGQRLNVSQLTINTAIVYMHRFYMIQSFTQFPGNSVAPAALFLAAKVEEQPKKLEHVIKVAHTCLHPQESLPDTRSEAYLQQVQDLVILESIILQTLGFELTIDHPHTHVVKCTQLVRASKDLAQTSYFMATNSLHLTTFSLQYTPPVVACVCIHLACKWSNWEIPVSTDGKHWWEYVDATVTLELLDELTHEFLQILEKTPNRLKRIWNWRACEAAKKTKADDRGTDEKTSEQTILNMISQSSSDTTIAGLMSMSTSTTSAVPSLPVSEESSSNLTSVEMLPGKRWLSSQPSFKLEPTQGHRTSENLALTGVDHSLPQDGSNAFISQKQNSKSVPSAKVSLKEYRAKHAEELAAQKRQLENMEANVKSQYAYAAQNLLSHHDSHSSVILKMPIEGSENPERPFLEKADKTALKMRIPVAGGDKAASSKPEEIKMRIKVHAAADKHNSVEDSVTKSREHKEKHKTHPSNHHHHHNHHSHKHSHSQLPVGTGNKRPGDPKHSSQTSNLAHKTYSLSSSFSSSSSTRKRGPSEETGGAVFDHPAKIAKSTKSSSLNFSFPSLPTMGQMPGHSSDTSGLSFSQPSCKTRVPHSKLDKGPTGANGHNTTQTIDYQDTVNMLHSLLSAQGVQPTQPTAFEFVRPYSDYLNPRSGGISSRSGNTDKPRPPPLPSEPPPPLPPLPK
T1 sequence (P11802 whole entry): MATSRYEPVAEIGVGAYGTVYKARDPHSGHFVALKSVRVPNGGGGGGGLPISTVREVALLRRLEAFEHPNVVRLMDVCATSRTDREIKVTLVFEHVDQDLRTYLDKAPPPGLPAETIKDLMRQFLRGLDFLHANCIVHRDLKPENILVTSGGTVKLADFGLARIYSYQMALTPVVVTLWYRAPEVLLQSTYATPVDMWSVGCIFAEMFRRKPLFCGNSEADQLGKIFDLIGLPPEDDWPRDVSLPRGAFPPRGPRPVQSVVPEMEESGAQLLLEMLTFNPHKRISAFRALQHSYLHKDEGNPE
T1 sequence (P30279 whole entry partner): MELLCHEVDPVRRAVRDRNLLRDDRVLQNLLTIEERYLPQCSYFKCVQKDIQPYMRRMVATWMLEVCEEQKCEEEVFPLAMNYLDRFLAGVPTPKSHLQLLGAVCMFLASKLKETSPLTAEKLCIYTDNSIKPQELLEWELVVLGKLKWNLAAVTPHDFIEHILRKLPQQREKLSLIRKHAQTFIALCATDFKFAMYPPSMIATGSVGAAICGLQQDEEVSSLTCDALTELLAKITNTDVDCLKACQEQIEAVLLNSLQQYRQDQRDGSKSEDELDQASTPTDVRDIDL
T2 sequence (P50613 whole entry): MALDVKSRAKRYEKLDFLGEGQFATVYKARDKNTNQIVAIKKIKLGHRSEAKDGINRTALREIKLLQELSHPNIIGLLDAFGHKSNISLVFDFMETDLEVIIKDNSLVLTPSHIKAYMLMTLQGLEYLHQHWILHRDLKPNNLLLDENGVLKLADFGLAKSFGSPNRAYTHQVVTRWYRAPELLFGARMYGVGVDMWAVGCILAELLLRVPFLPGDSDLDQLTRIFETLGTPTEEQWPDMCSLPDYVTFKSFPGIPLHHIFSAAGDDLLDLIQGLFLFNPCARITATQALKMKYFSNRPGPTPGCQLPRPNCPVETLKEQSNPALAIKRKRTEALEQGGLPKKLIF
T2 sequence (P51946 whole entry partner): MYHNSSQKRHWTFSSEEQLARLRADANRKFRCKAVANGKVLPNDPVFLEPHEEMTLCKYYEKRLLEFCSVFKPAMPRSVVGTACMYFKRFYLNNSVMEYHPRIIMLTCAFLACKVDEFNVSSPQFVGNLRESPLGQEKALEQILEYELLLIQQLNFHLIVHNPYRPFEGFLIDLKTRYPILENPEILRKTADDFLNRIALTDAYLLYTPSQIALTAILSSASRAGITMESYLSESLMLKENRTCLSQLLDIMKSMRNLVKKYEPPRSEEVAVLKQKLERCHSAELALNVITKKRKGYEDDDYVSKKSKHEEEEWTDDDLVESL

Row | SMILES | IC50 (cyclin D2-Cdk4) [nM] | IC50 (cyclin H-Cdk7) [nM] | IC50 (cyclin T1-Cdk9) [nM] | IC50 (JURKAT) [nM]
1 | CNCc1cnc(Nc2ncc(-c3cc(C)nc(Sc4ccccc4Cl)n3)s2)cn1 [Example 107] | 8.8 | 830 | 250 | 63
2 | Cc1cc(-c2cnc(Nc3cnc(CN4CCC[C@H]4CO)cn3)s2)nc(Sc2ccccc2Cl)n1 [Example 110, (2S)-5-[2-(2-chlorophenylthio)-6-methyl-4-pyrimidinyl]-2-[5-(2-hydroxymethyl-1-pyrrolidinyl)methyl-2-pyrazinyl]amino-1,3-thiazole] | 10 | 490 | 320 | 73
3 | Cc1cc(-c2cnc(Nc3cnc(CN4CCCC4)cn3)s2)nc(Sc2ccccc2Cl)n1 [Example 113, 5-[2-(2-chlorophenylthio)-6-methyl-4-pyrimidinyl]-2-[5-(1-pyrrolidinyl)methyl-2-pyrazinyl]amino-1,3-thiazole] | 13 | 560 | 880 | 72
4 | Cc1cc(-c2cnc(Nc3cnc(CN(C)CCO)cn3)s2)nc(Sc2ccccc2Cl)n1 [Example 114, 5-[2-(2-chlorophenylthio)-6-methyl-4-pyrimidinyl]-2-{5-[(2-hydroxyethyl)methylamino]methyl-2-pyrazinyl}amino-1,3-thiazole] | 13 | 780 | 1600 | 83
5 | Cc1cc(-c2cnc(Nc3cnc(CN4CC[C@@H](O)C4)cn3)s2)nc(Sc2ccccc2Cl)n1 [Example 118, (3R)-5-[2-(2-chlorophenylthio)-6-methyl-4-pyrimidinyl]-2-[5-(3-hydroxy-1-pyrrolidinyl)methyl-2-pyrazinyl]amino-1,3-thiazole] | 20 | 990 | 980 | 90

Now those with a lower IC50 (cyclin D2-Cdk4), led by results:

Row | IC50 (cyclin D2-Cdk4) [nM] | IC50 (cyclin H-Cdk7) [nM] | IC50 (cyclin T1-Cdk9) [nM] | IC50 (JURKAT) [nM] | SMILES
6 | 5.5 | 210 | 330 | 160 | CCNCc1cnc(Nc2ncc(-c3cc(C)nc(NC4CCCCC4)n3)s2)cn1 [Example 52, 5-[2-(cyclohexylamino)-6-methyl-4-pyrimidinyl]-2-[5-(ethylamino)methyl-2-pyrazinyl]amino-1,3-thiazole]
7 | 5.3 | 370 | 180 |  | CCNCc1cnc(Nc2ncc(-c3cc(C)nc(Sc4ccccc4Cl)n3)s2)cn1 [Example 105, 5-[2-(2-chlorophenylthio)-6-methyl-4-pyrimidinyl]-2-[5-(ethylamino)methyl-2-pyrazinyl]amino-1,3-thiazole]
8 | 8.4 | 560 | 310 | 63 | Cc1cc(-c2cnc(Nc3cnc(CNC(C)C)cn3)s2)nc(Sc2ccccc2Cl)n1 [Example 106, 5-[2-(2-chlorophenylthio)-6-methyl-4-pyrimidinyl]-2-[5-(isopropylamino)methyl-2-pyrazinyl]amino-1,3-thiazole]
